The values below come from patent US11292971B2, “Dissolution of hexamine in non-aqueous solvent” (ECOLAB USA INC., priority 2017, dated 2022).

Each structure is given as a SMILES string.

The nature of data set [1]: Dissolution of hexamine in cinnamyl alcohol and glycerin: slurry left two days, clear supernatant analyzed for composition. In kind it is physicochemical. As to conditions: about room temperature. The protocol: Slurries were prepared by mixing hexamine in cinnamyl alcohol or a mixture of cinnamyl alcohol and glycerin at about room temperature. The compositions were then allowed to sit undisturbed for two days and the clear supernatant decanted off and analyzed for composition. As the results below illustrate, clear stable solutions of hexamine in various ratios of glycerin and cinnamyl alcohol were obtained.

The conditions of data set [2]: 20° C., cited from earlier work.

`C1N2CN3CN1CN(C2)C3` [Hexamine, 1,3,5,7-tetraazatricyclo[3.3.1.1^3,7]decane]: the “Hexamine in stable solution” value in data set [1] (cinnamyl alcohol 16, glycerin (<1% water) 76 weight %) came to 8 Weight %; in data set [1] (cinnamyl alcohol 32, glycerin (<1% water) 63 weight %), 5 Weight %; in data set [1] (cinnamyl alcohol 37, glycerin (<1% water) 55 weight %) it was 8 Weight %; in data set [1] (cinnamyl alcohol 50, glycerin (<1% water) 43 weight %), 7 Weight %; in data set [1] (cinnamyl alcohol 59, glycerin (<1% water) 34 weight %), 7 Weight %; in data set [1] (cinnamyl alcohol 68, glycerin (<1% water) 22 weight %), 10 Weight %. Also, the “Hexamine in stable solution” value in data set [1] (cinnamyl alcohol 78, glycerin (<1% water) 11 weight %) stood at 11 Weight %; in data set [1] (cinnamyl alcohol 84, glycerin (<1% water) 6 weight %), 10 Weight %; in data set [1] (cinnamyl alcohol 93, glycerin (<1% water) 0 weight %) it was 7 Weight %. In addition, the solubility in acetone in data set [2] (acetone) is 0.65 g. For the same molecule, the solubility in benzene in data set [2] (benzene) is recorded as 0.23 g. Further, the solubility in chloroform in data set [2] (chloroform) is reported as 13.4 g. The solubility in ethanol in data set [2] (ethanol) is given as 2.89 g. For the same molecule, the solubility in ether in data set [2] (ether) is given as 0.06 g. The solubility in methanol in data set [2] (methanol) is reported as 7.25 g. The “solubility in petroleum ether” value in data set [2] (petroleum ether) was “near zero”. Moreover, the solubility in xylene in data set [2] (xylene) is recorded as 0.14 g.
